Assay results from patent publication EP1282725B1, “METHODS OF MODULATING FUNCTIONS OF POLYPEPTIDE GalNAc TRANSFERASES AND OF SCREENING SUBSTANCES THEREFOR” (Glycozym ApS, priority 2000, dated 2001).

How the values were obtained:
GalNAc-T3 = assay: Inhibition of GalNAc-T3 activities with EA2 acceptor substrate; type: biochemical, human; conditions: for Activity in the presence of inhibitors: inhibitors 230 mM, EA2 acceptor
Method: (§1) Products were quantified by scintillation counting after chromatography on Dowex-1, octadecyl silica cartridges (Bakerbond), or HPLC (PC3.2/3 or mRPC C2/C18 SC2.1/10 Pharmacia, Smart System). […] Glycopeptides were purified on Supelclean LC-18 columns (1 ml, Supelco), and the number of GalNAc residues incorporated evaluated by MALDI-TOF mass spectrometry. The enzyme sources used were semipurified as previously described by successive sequential ion-exchange chromatographies on Amberlite (IRA95, Sigma) or DEAE Sephacel (Pharmacia), S-Sepharose Fast Flow (Pharmacia), and Mini-S^TM (PC 3.2/3, Pharmacia) using the Smart System (Pharmacia) (28). Secreted GalNAc-T4 was obtained from a stably transfected CHO line ([…]) (8) grown in roller bottles in HAMS F12 supplemented with 10 % Fetal Bovine Serum. The experiments illustrated in Fig. 1 was performed with recombinant secreted GalNAc-T4 obtained from a stably transfected CHO line (8). Experiments illustrated in Figs. 2 and 3 were performed with secreted GalNAc-T4 expressed in High Five cells grown in serum-free medium (8). Structural analysis of glycopeptides were performed by a combination of PFPA (pentafluoropropionic acid) hydrolysis and MALDI-TOF mass spectrometry as previously described (40). Secreted GalNAc-T7 was obtained from infected High Five^TM cells grown in serum-free medium (Invitrogen) in upright roller bottles shaken 140 rpm in waterbaths at 27 °C. GalNAc-T7 was not purified by Mini-S as the yields from cationic chromatography were low due to its low pI (6.4). […] Galactosyl transferring activities of GalNAc-T1, -T2, and -T3, were assayed with a panel of acceptor peptides in standard reaction mixtures containing 100 μM UDP-Gal instead of UDP-GalNAc.

GalNAc-T2 [1] = assay: Inhibition of GalNAc-T2 activities with Muc2 acceptor substrate; type: biochemical, human; conditions: for Activity in the presence of inhibitors: inhibitors 230 mM, Muc2 acceptor
Method: as §1

GalNAc-T4 [2] = assay: Inhibition of the glycosylation dependent (GalNAc-glycopeptide) activity of GalNAc-T4, time-course MALDI-TOF; type: biochemical, human
Method: (§2) MALDI-TOF time-course in terminal reactions were performed in reactions of 25 µl containing 2.5 nmol acceptor (glyco)peptide, 40 nmol UDP-GalNAc, and 0.4 µg GalNAc-T4. Sampling of reactions (1 µl) were purified by nano-scale reversed-phase chromatography (Poros R3, PerSeptive Biosystem) and applied directly to the probe with matrix (41). The amount of GalNAc-transferase added was adjusted so that the reaction with the appropriate peptide was near completion in six hours. Reactions were incubated at 37°C in a shaker bath. At times 0, 2 hours, and 16 hours a 1 µl aliquot was taken and purified. Mass spectra were acquired on either Voyager-DE mass spectrometer equipped with delayed extraction (Perseptive Biosystem Inc.). The matrix used was 2,5-dihydroxybenzoic acid (10 mg/ml, Hewlett-Packard) dissolved in a 2:1 mixture of 0.1% trifluoroacetic acid in 30 % aqueous acetonitrile (Rathburn Ltd.).
Quantification of purified proteins was done by Coomassie stained SDS-PAGE and titration of immunoreactivity with the monoclonal antibody, UH6(4G2) (8). […] Wild-type GalNAc-T4 and mutant GalNAc-T4, GalNAc-T4^459H, were analysed with unglycosylated peptides (represented by PSGL-1) or GalNAc glycosylated glycopeptides (represented by GalNAc3TAP25V21) in reactions of 25 µl containing 2.5 nmol acceptor (glyco)peptide, 40 nmol UDP-GalNAc, and 0.4 µg GalNAc-T4. Time-course assays were motioned by MALDI-TOF. Sampling of reactions (1 µl) were purified by nano-scale reversed-phase chromatography (Poros R3, PerSeptive Biosystem) and applied directly to the probe with matrix. Evaluation of inhibition of the glycopeptide specificity of wild-type GalNAc-T4 with free sugars was performed to establish if the lectin domain recognized carbohydrate. […] Further, analysis was performed with 10 mM α-D-GalNAc-1-benzyl, αGlcNAc-benzyl, and fully occupied GalNAc-glycopeptide, GalNAc6TAP25, at 5 mM.

[3] = tested on: GalNAc-T4^459D or -T4^459H; assay: Glycosylation independent activity of GalNAc-T4 wild-type and lectin mutant with naked peptides, MALDI-TOF; type: biochemical, human; conditions: naked peptides (PSGL-1); free sugars
Method: as §2
Quantification of purified proteins was done by Coomassie stained SDS-PAGE and titration of immunoreactivity with the monoclonal antibody, UH6(4G2) (8). […] Wild-type GalNAc-T4 and mutant GalNAc-T4, GalNAc-T4^459H, were analysed with unglycosylated peptides (represented by PSGL-1) or GalNAc glycosylated glycopeptides (represented by GalNAc3TAP25V21) in reactions of 25 µl containing 2.5 nmol acceptor (glyco)peptide, 40 nmol UDP-GalNAc, and 0.4 µg GalNAc-T4. […]

GalNAc-T4 [4] = assay: Direct binding to free GalNAc, conventional binding assays; parameters: species or system human
GalNAc-T2 [5] = assay: as above; parameters: species or system human
GalNAc-T7 = assay: Inhibition of GalNAc-T7 activity with GalNAc2-3EA2 substrate; type: biochemical, human; conditions: for inhibition of the activity of GalNAc-T7 with GalNAc2-3EA2: 5 mM concentrations; for Activity in the presence of inhibitors: inhibitors 5 mM, GalNAc2-3EA2 substrate, without inhibitor 6.8
Method: Standard reaction mixtures (50 µl final volume) contained 25 mM cocadylate (pH 7.4), 10 mM MnCl2, 0.25% Triton X-100, 200 µM UDP-[^14C]-GalNAc (2,000 cpm/nmol) (Amer-sham), 200-500 µM acceptor peptides. Products were quantified by scintillation counting after chromatography on Dowex-1, octadecyl silica cartridges (Bakerbond), or HPLC (PC3.2/3 or mRPC C2/C18 SC2.1/10 Pharmacia, Smart System). […] Glycopeptides were purified on Supelclean LC-18 columns (1 ml, Supelco), and the number of GalNAc residues incorporated evaluated by MALDI-TOF mass spectrometry. The enzyme sources used were semipurified as previously described by successive sequential ion-exchange chromatographies on Amberlite (IRA95, Sigma) or DEAE Sephacel (Pharmacia), S-Sepharose Fast Flow (Pharmacia), and Mini-S™ (PC 3.2/3, Pharmacia) using the Smart System (Pharmacia) (28). Secreted GalNAc-T4 was obtained from a stably transfected CHO line (CHO/GalNA-T4/21A) (8) grown in roller bottles in HAMS F12 supplemented with 10 % Fetal Bovine Serum. The experiments illustrated in Fig. 1 was performed with recombinant secreted GalNAc-T4 obtained from a stably transfected CHO line (8). Experiments illustrated in Figs. 2 and 3 were performed with secreted GalNAc-T4 expressed in High Five cells grown in serum-free medium (8). Structural analysis of glycopeptides were performed by a combination of PFPA (pentafluoropropionic acid) hydrolysis and MALDI-TOF mass spectrometry as previously described (40). Secreted GalNAc-T7 was obtained from infected High Five™ cells grown in serum-free medium (Invitrogen) in upright roller bottles shaken 140 rpm in waterbaths at 27 °C. GalNAc-T7 was not purified by Mini-S as the yields from cationic chromatography were low due to its low pI (6.4).
GalNAc-T7 activity was analysed with GalNAc glycosylated glycopeptides (represented by GalNAc2-3EA2 (7)) in reactions of 25 µl containing 2.5 nmol acceptor (glyco)peptide, 40 nmol UDP-GalNAc, and purified GalNAc-T7. […] Further, analysis was performed with 10 mM α-D-GalNAc-1-benzyl, αGlcNAc-benzyl, and fully occupied GalNAc-glycopeptide, GalNAc6TAP25, at 5 mM.

[6] = donor UDP-Gal, without inhibitor 6.3
[7] = donor UDP-GalNAc, without inhibitor 34
[8] = donor UDP-Gal, without inhibitor 90
[9] = donor UDP-GalNAc, without inhibitor 340
[10] = […] free sugars, GalNAc3TAP25V21 glycopeptide substrate

SMILES | Activity in the presence of inhibitors (GalNAc-T3; [6]) [nmol/min/mL] | Activity in the presence of inhibitors (GalNAc-T3; [7]) [nmol/min/mL] | Activity in the presence of inhibitors (GalNAc-T2 [1]; [8]) [nmol/min/mL] | Activity in the presence of inhibitors (GalNAc-T2 [1]; [9]) [nmol/min/mL] | inhibition of the glycosylation dependent specificity of GalNAc-T4 (GalNAc-T4 [2]; [10]) | inhibition of the activity of GalNAc-T7 with GalNAc2-3EA2 (GalNAc-T7) | Activity in the presence of inhibitors (GalNAc-T7) [nmol/min/mL] | other results
C[C@@H]1OC(O)[C@@H](O)[C@H](O)[C@@H]1O (stereo partly shown) [Fuc] | 6.5 | 34 | 89 | 370 | failed to show significant inhibition | – | – | –
CC(=O)N[C@H]1C(O)O[C@H](CO)[C@H](O)[C@@H]1O (stereo partly shown) [GalNAc, N-acetylgalactosamine] | 2.5 | 35 | 24 | 300 | – | – | – | inhibition of the galactosyltransferase activity of GalNAc-T3 (GalNAc-T3; donor UDP-Gal): selectively inhibited; inhibition of the galactosyltransferase activity with Muc2 substrate (GalNAc-T2 [1]; donor UDP-Gal): selectively inhibited; effect on the glycosylation independent activities of GalNAc-T4 [3]: no effect on the general catalytic function of the enzyme; inhibition of the glycosylation dependent specificity of GalNAc-T4 (GalNAc-T4 [2]; 50 mM sugars (not shown)): approximately 50%; direct binding of GalNAc-T4 to free GalNAc (GalNAc-T4 [4]): could not detect direct binding; direct binding of GalNAc-T2 to free GalNAc (GalNAc-T2 [5]): could not detect direct binding
OC[C@H]1OC(O)[C@H](O)[C@@H](O)[C@H]1O (stereo partly shown) [Gal] | 7.3 | 33 | 89 | 300 | failed to show significant inhibition | – | – | –
CC(=O)N[C@H]1[C@@H](OCc2ccccc2)O[C@H](CO)[C@H](O)[C@@H]1O[C@@H]1O[C@H](CO)[C@H](O)[C@H](O)[C@H]1O [Galβ1-3GaINAcα1-bz, Galβ1-3GalNAcα1-benzyl] | – | – | – | – | – | significantly inhibited | 4.5 | inhibition of GalNAc-T4 glycopeptide activity compared to GalNAc (GalNAc-T4 [2]; concentration not given): neither Gal nor Galβ1-3GalNAcα1-benzyl produced significant inhibition
CC(=O)N[C@H]1C(O)O[C@H](CO)[C@@H](O)[C@@H]1O (stereo partly shown) [GlcNAc] | 7 | 32 | 68 | 310 | failed to show significant inhibition | – | – | –
CC(=O)N[C@H]1[C@@H](OCc2ccccc2)O[C@H](CO)[C@H](O)[C@@H]1O [bz-αGalNAc, α-D-GalNAc-1-benzyl] | – | – | – | – | – | significantly inhibited | 5.4 | –
OC[C@H]1O[C@H](OCc2ccccc2)[C@@H](O)[C@@H](O)[C@@H]1O [bz-αMan] | – | – | – | – | – | – | 6.7 | –
OC[C@H]1O[C@@H](OCc2ccccc2)[C@H](O)[C@@H](O)[C@H]1O [bz-βGal] | – | – | – | – | – | significantly inhibited | 4.7 | –
CC(=O)N[C@H]1[C@@H](OCc2ccccc2)O[C@H](CO)[C@@H](O)[C@@H]1O [αGlcNAc-benzyl] | – | – | – | – | – | – | – | inhibition of the glycosylation dependent specificity of GalNAc-T4 (GalNAc-T4 [2]; 10 mM benzyl glycoside): did not inhibit catalytic activity
